Experiments:
[1] = Thermogravimetric measurement (TG), 15% thermal weight loss temperature; type: physicochemical
[2] = Solubility in PGME, PGMEA, CPN and CHN at 23° C.
Experimental: Herein, the solubility in PGME and/or PGMEA, and/or CPN, and/or CHN is defined as “Mass of resin/(Mass of resin+Mass of solvent)×100 (% by mass)”.
The amount of each compound dissolved in 1-methoxy-2-propanol (PGME), propylene glycol monomethyl ether acetate (PGMEA), cyclopentanone (CPN), and cyclohexanone (CHN) was measured at 23° C., and the results were evaluated according to the following criteria.
Evaluation A: 10% by mass or more
Evaluation B: less than 10% by mass

[3] = cyclopentanone and cyclohexanone
[4] = 1-methoxy-2-propanol and propylene glycol monomethyl ether acetate

Row | Compound | 15% thermal weight loss temperature [1] | solubility in CPN and CHN [2, 3] | solubility in CPN and CHN (Evaluation) [2, 3] | solubility in PGME and PGMEA [2, 4] | solubility in PGME and PGMEA (Evaluation) [2, 4]
1 | c1ccc2c(c1)c1ccccc1c1c3ccccc3c3ccccc3c21 [DBC, dibenzo[g,p]chrysene] | ≥ 400 °C | ≥ 10 % by mass | A (10% by mass or more) |  | 
2 | tetraallyloxydibenzochrysene [TAODBC] |  |  |  | ≥ 10 % by mass | A (10% by mass or more)

— patent US10310377B2, “Material for forming film for lithography, composition for forming film for lithography, film for lithography, pattern forming method and purification method” (Mitsubishi Gas Chemical Company, Inc., priority 2014, dated 2019)
